Assay results from patent US4705749A, “Process and reagent for the determination of glycerol with the use of glycerol kinase” (Boehringer Mannheim GmbH, priority 1983, dated 1987).

Assays:
[1] = biological target: T1, GK from Bacillus stearothermophilus (Geobacillus stearothermophilus, UniProt A0ACH1EBP7); experiment: Comparative investigation of inhibitors, reaction rate ΔE/min (Table 1); assay type: biochemical; settings: sample glycerol 6 mMole/liter, 1:100, 25° C., 546 nm
T1 construct: coupled glycerol phosphate oxidase/peroxidase test
Protocol: (§1) Comparative investigation of various inhibitors according to the present invention with GK of varying origin: […]
(§2) tris/HCl 0.1 mole/litre, pH 7.6
(§3) glycerol phosphate oxidase
(§4) glycerol kinase 2.0 U/ml.
(§5) magnesium sulphate heptahydrate
(§6) 4-chlorophenol 3.5 mMole/litre
(§7) 4-aminoantipyrine 0.35 mMole/litre
(§8) Sample: aqueous glycerol solution 6 mMole/liter sample/reagent ratio 1:100 (20 μl./2 ml.)
(§9) measurement wavelength 546 nm. (ΔE/min. in each case read off from the linear region)

GK from Escherichia coli = GK from Escherichia coli (Escherichia coli, UniProt P0A6F3); experiment: Comparative investigation of inhibitors, reaction rate ΔE/min (Table 2); assay type: biochemical; settings: sample glycerol 6 mMole/liter, 1:100, 25° C., 546 nm
Protocol: as §1, §2, §3, §4, §5, §6, §7, §8, §9

T1 sequence (A0ACH1EBP7 1-496): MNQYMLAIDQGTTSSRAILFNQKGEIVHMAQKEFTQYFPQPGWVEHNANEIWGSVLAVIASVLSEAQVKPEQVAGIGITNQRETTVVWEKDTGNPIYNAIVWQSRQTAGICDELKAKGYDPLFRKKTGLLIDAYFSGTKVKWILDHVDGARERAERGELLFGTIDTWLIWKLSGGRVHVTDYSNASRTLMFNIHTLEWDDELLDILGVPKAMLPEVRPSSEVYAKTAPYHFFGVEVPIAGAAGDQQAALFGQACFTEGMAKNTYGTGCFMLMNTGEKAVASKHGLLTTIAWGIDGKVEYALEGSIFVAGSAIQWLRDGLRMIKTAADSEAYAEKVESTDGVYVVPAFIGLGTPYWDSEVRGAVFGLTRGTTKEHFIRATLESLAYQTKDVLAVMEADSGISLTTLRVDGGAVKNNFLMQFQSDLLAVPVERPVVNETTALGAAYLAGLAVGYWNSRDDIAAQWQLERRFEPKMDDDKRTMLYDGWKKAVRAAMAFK
Sequence of GK from Escherichia coli (P0A6F3 whole entry): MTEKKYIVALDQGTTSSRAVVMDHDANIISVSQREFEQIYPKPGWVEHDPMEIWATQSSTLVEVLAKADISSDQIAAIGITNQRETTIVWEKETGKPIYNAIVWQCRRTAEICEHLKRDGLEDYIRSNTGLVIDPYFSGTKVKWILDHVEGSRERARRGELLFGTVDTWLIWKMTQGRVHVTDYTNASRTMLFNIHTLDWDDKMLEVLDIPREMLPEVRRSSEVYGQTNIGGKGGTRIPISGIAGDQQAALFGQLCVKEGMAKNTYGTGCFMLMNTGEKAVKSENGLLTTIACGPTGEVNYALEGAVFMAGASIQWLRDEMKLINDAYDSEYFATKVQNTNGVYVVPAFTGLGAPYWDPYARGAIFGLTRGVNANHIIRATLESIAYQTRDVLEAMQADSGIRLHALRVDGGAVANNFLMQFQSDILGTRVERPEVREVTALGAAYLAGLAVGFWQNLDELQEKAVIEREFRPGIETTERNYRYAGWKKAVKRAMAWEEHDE

SMILES	ΔE/min ([1]; inhibitor 10 mMol/l) [min⁻¹]	ΔE/min ([1]; inhibitor 20 mMol/l) [min⁻¹]	ΔE/min ([1]; inhibitor 50 mMol/l) [min⁻¹]	ΔE/min ([1]; inhibitor 100 mMol/l) [min⁻¹]	ΔE/min (GK from Escherichia coli; inhibitor 20 mMol/l) [min⁻¹]	ΔE/min (GK from Escherichia coli; inhibitor 50 mMol/l) [min⁻¹]	ΔE/min (GK from Escherichia coli; inhibitor 100 mMol/l) [min⁻¹]	ΔE/min (GK from Escherichia coli; inhibitor 150 mMol/l) [min⁻¹]	ΔE/min ([1]; inhibitor 2 mMol/l) [min⁻¹]	ΔE/min ([1]; inhibitor 5 mMol/l) [min⁻¹]	ΔE/min (GK from Escherichia coli; inhibitor 5 mMol/l) [min⁻¹]	ΔE/min (GK from Escherichia coli; inhibitor 10 mMol/l) [min⁻¹]
O=C[C@@H](O)[C@H](O)[C@H](O)CO [D-arabinose]	0.426	0.349	0.249	0.121	0.363	0.302	0.231	0.167	–	–	–	–
O=C[C@@H](O)[C@H](O)[C@@H](O)CO [L-xylose]	0.105	0.062	–	–	0.118	0.072	–	–	0.320	0.188	0.228	0.169
C[C@H](O)[C@@H](O)[C@@H](O)[C@H](O)C=O [L-fucose]	0.230	0.153	0.077	0.039	0.352	0.286	0.209	0.142	–	–	–	–
